From patent publication US9926282B2, “Phthalazinones and isoquinolinones as rock inhibitors” (BRISTOL-MYERS SQUIBB COMPANY, priority 2013, dated 2018)

Key:
neointimal formation = conditions: rats; cited from earlier work
[1] = tested on: congestive heart failure in Dahl salt-sensitive rats; conditions: cited from earlier work
rat stroke model = conditions: cited from earlier work
ROCK1 = ROCK1 (Homo sapiens (Human), UniProt Q13464); experiment: ROCK assay (LABCHIP peptide phosphorylation), ROCK1; type: biochemical; conditions: 5 μM ATP, 1.5 μM peptide substrate; read-out: ROCK1 IC50
ROCK2 = ROCK2 (Homo sapiens (Human), UniProt O75116); experiment: ROCK assay (LABCHIP peptide phosphorylation), ROCK2; type: biochemical; conditions: 5 μM ATP, 1.5 μM peptide substrate
Sequence of ROCK2 (O75116 whole entry, species assumed): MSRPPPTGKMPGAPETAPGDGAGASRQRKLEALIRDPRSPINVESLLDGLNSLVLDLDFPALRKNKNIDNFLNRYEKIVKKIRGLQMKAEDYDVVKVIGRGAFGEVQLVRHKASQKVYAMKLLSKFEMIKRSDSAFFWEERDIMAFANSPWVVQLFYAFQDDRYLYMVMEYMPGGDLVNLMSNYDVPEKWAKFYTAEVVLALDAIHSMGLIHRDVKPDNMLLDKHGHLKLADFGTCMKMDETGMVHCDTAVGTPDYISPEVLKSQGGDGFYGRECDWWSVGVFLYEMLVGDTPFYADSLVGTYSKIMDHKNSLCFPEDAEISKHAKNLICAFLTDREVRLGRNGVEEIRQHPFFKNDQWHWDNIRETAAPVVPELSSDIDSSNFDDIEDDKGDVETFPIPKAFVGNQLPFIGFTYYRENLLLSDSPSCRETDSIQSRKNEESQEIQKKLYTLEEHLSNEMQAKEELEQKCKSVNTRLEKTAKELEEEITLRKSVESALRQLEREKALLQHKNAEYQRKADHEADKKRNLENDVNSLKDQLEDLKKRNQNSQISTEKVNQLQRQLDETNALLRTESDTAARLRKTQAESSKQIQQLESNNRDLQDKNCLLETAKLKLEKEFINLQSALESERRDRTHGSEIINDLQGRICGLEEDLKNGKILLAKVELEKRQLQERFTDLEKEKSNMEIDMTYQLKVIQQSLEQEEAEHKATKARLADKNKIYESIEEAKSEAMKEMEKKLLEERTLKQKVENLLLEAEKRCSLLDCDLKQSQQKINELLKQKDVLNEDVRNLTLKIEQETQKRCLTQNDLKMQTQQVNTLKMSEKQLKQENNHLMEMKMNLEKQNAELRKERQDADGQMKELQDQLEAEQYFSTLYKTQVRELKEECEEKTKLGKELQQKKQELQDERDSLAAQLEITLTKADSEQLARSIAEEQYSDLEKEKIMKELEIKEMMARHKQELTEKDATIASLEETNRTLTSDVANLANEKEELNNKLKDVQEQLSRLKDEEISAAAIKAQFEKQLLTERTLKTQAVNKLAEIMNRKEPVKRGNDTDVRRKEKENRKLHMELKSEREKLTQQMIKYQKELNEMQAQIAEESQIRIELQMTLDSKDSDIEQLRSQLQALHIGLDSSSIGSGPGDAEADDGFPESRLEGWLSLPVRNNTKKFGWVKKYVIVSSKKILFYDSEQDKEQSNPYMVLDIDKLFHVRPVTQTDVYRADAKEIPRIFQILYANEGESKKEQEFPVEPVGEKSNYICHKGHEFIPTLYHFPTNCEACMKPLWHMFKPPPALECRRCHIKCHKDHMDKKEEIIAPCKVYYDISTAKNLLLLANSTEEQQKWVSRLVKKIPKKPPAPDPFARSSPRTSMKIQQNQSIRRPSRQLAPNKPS

Sequence of ROCK1 (Q13464 whole entry, species assumed): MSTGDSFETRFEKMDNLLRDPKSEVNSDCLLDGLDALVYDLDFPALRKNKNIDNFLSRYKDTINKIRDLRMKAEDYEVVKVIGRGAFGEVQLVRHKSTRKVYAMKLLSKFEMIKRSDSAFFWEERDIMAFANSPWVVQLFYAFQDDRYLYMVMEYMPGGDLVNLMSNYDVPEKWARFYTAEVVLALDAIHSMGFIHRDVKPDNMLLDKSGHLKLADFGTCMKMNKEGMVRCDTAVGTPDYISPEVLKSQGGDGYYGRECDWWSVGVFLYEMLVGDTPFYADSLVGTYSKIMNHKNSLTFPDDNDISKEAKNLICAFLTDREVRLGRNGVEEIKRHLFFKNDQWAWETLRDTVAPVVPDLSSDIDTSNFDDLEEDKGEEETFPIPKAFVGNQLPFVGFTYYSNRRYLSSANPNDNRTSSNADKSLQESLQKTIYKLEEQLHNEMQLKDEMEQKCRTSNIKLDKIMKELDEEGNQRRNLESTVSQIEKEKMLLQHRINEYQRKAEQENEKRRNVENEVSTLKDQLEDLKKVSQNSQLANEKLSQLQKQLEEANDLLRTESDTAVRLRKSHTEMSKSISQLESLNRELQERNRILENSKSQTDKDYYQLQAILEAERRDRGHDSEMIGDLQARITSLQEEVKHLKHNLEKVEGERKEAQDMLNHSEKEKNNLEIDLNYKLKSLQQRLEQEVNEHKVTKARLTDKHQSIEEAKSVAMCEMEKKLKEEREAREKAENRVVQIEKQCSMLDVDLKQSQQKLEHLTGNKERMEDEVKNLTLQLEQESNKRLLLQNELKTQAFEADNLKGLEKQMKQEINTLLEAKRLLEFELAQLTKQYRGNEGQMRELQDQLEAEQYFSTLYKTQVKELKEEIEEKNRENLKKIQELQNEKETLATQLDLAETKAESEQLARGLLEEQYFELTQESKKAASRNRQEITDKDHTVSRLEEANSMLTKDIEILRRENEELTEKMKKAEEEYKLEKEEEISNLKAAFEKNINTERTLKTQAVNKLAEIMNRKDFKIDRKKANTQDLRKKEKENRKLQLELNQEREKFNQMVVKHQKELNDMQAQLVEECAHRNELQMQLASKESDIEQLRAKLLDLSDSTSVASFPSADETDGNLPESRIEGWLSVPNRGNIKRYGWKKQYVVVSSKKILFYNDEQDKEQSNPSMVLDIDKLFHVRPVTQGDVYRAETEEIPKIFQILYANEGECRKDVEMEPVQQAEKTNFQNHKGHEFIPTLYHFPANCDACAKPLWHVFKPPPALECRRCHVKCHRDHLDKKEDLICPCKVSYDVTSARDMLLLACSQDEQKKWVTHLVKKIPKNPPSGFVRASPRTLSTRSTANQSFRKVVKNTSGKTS

Row | SMILES | neointimal formation (neointimal formation) | ventricular hypertrophy, fibrosis and function [1] | infarct size and neurologic deficit (rat stroke model) | IC50 (ROCK1) [nM] | IC50 (ROCK2) [nM]
1 | C[C@@H](N)[C@H]1CC[C@H](C(=O)Nc2ccncc2)CC1 [Example Y-27632] | inhibited neointimal formation | improve ventricular hypertrophy, fibrosis and function |  |  | 
2 | O=S(=O)(c1cccc2cnccc12)N1CCCNCC1 [fasudil] |  |  | reduce both the infarct size and neurologic deficit |  | 
3 | O=c1[nH]nc(-c2ccc(Nc3nc(-c4ccccc4)cs3)cc2)c2ccccc12 [Example 74, 4-(4-((4-Phenylthiazol-2-yl)amino)phenyl)phthalazin-1(2H)-one] |  |  |  | 1000 to 50000 | 0.1 to 100
4 | O=C(Nc1ccc(-c2n[nH]c(=O)c3ccccc23)cc1)c1c2ccccc2nn1CC1COC1 [Example 143, 2-(oxetan-3-ylmethyl)-N-[4-(4-oxo-3,4-dihydrophthalazin-1-yl)phenyl]-2H-indazole-3-carboxamide] |  |  |  | 1000 to 50000 | 1000 to 50000
5 | O=C(Nc1ccc(-c2n[nH]c(=O)c3ccccc23)cc1)c1ncn(-c2ccccn2)n1 [Example 240, N-[4-(4-oxo-3,4-dihydrophthalazin-1-yl)phenyl]-1-(pyridin-2-yl)-1H-1,2,4-triazole-3-carboxamide] |  |  |  | 101 to 1000 | 0.1 to 100
6 | O=C(Nc1ccc(-c2n[nH]c(=O)c3ccccc23)cc1)c1ncc(-c2ccncc2)s1 [Example 47, N-[4-(4-oxo-3,4-dihydrophthalazin-1-yl)phenyl]-5-(pyridin-4-yl)-1,3-thiazole-2-carboxamide] |  |  |  | 101 to 1000 | 0.1 to 100
7 | O=C(Cc1ccc(-c2n[nH]c(=O)c3ccccc23)cc1)N1CCC(c2ccccc2)CC1 [Example 11, 4-{4-[2-oxo-2-(4-phenylpiperidin-1-yl)ethyl]phenyl}-1,2-dihydrophthalazin-1-one] |  |  |  | 1000 to 50000 | 101 to 1000
8 | O=C(Nc1ccc(-c2n[nH]c(=O)c3ccccc23)cc1)c1csc(-c2ccccc2)n1 [Example 46, N-[4-(4-oxo-3,4-dihydrophthalazin-1-yl)phenyl]-2-phenyl-1,3-thiazole-4-carboxamide] |  |  |  | 1000 to 50000 | 0.1 to 100
9 | O=C(Nc1ccc(-c2n[nH]c(=O)c3ccccc23)cc1)c1nn(CCC(=O)N2CCOCC2)c2ccccc12 [Example 337, 1-(3-Morpholino-3-oxopropyl)-N-(4-(4-oxo-3,4-dihydrophthalazin-1-yl)phenyl)-1H-indazole-3-carboxamide] |  |  |  | 0.1 to 100 | 0.1 to 100
10 | O=C(Cc1ccc(-c2n[nH]c(=O)c3ccccc23)cc1)N1CCc2ccc([N+](=O)[O-])cc21 [Example 285, 4-{4-[2-(6-nitro-2,3-dihydro-1H-indol-1-yl)-2-oxoethyl]phenyl}-1,2-dihydrophthalazin-1-one] |  |  |  | 0.1 to 100 | 0.1 to 100
11 | O=C(Nc1ccc(-c2c[nH]c(=O)c3ccccc23)cc1)c1ccc(N2CCCC2)cc1 [Example 251, N-(4-(1-Oxo-1,2-dihydroisoquinolin-4-yl)phenyl)-4-(pyrrolidin-1-yl)benzamide] |  |  |  | 101 to 1000 | 0.1 to 100
12 | CC(=O)N1CCC(C(=O)Nc2ccc(-c3n[nH]c(=O)c4ccccc34)cc2)CC1 [Example 55, 1-acetyl-N-[4-(4-oxo-3,4-dihydrophthalazin-1-yl)phenyl]piperidine-4-carboxamide] |  |  |  | 1000 to 50000 | 1000 to 50000
13 | Cc1cc(NC(=O)c2onc3ccccc23)ccc1-c1n[nH]c(=O)c2ccccc12 [Example 306, N-[3-methyl-4-(4-oxo-3,4-dihydrophthalazin-1-yl)phenyl]-2,1-benzoxazole-3-carboxamide] |  |  |  | 101 to 1000 | 0.1 to 100
14 | O=C(Nc1ccc(-c2n[nH]c(=O)c3ccccc23)cc1)c1cnn(Cc2ccccc2)c1 [Example 200, 1-benzyl-N-[4-(4-oxo-3,4-dihydrophthalazin-1-yl)phenyl]-1H-pyrazole-4-carboxamide] |  |  |  | 0.1 to 100 | 0.1 to 100
15 | O=C(Nc1ccc(-c2n[nH]c(=O)c3ccccc23)cc1)c1cnn2cc(OCCN3CCOCC3)ccc12 [Example 188, 6-[2-(morpholin-4-yl)ethoxy]-N-[4-(4-oxo-3,4-dihydrophthalazin-1-yl)phenyl]pyrazolo[1,5-a]pyridine-3-carboxamide] |  |  |  | 0.1 to 100 | 0.1 to 100
16 | O=C(Nc1ccc(-c2n[nH]c(=O)c3ccccc23)cc1)c1cnn(CCCN2CCCC2)c1 [Example 399, N-(4-(4-Oxo-3,4-dihydrophthalazin-1-yl)phenyl)-1-(3-(pyrrolidin-1-yl)propyl)-1H-pyrazole-4-carboxamide] |  |  |  | 101 to 1000 | 101 to 1000
17 | Cc1ccc(N2CC(C(=O)Nc3ccc(-c4n[nH]c(=O)c5ccccc45)cc3)CC2=O)cc1 (centres unmarked) [Example 210, 1-(4-methylphenyl)-5-oxo-N-[4-(4-oxo-3,4-dihydrophthalazin-1-yl)phenyl]pyrrolidine-3-carboxamide] |  |  |  | 101 to 1000 | 101 to 1000
18 | COc1ccc2[nH]c(C(=O)Nc3ccc(-c4n[nH]c(=O)c5ccccc45)cc3)cc2c1 [Example 125, 5-methoxy-N-[4-(4-oxo-3,4-dihydrophthalazin-1-yl)phenyl]-1H-indole-2-carboxamide] |  |  |  | 0.1 to 100 | 0.1 to 100
19 | CC(=O)N1CC(Cn2nc(C(=O)Nc3ccc(-c4n[nH]c(=O)c5ccccc45)cc3)c3ccccc32)C1 [Example 339, 1-((1-Acetylazetidin-3-yl)methyl)-N-(4-(4-oxo-3,4-dihydrophthalazin-1-yl)phenyl)-1H-indazole-3-carboxamide] |  |  |  | 0.1 to 100 | 0.1 to 100
20 | CC(C)(O)Cn1nc(C(=O)Nc2ccc(-c3n[nH]c(=O)c4ccccc34)c(CO)c2)c2ccccc21 [Example 360, 1-(2-Hydroxy-2-methylpropyl)-N-(3-(hydroxymethyl)-4-(4-oxo-3,4-dihydrophthalazin-1-yl)phenyl)-1H-indazole-3-carboxamide] |  |  |  | 1000 to 50000 | 0.1 to 100
21 | COc1ccc2c(c1)CN(C(=O)Cc1ccc(-c3n[nH]c(=O)c4ccccc34)cc1)C2 [Example 3, 4-(4-(2-(5-Methoxyisoindolin-2-yl)-2-oxoethyl)phenyl)phthalazin-1(2H)-one] |  |  |  | 101 to 1000 | 0.1 to 100
22 | CN(C)c1ccc(C(=O)Nc2ccc(-c3n[nH]c(=O)c4ccccc34)cc2)cc1 [Example 58, 4-(dimethylamino)-N-[4-(4-oxo-3,4-dihydrophthalazin-1-yl)phenyl]benzamide] |  |  |  | 0.1 to 100 | 0.1 to 100
23 | O=C(c1ccc2c(c1)N(C(=O)Cc1ccc(-c3n[nH]c(=O)c4ccccc34)cc1)CC2)N1CCC(O)CC1 [Example 295, 4-(4-{2-[6-(4-hydroxypiperidine-1-carbonyl)-2,3-dihydro-1H-indol-1-yl]-2-oxoethyl}phenyl)-1,2-dihydrophthalazin-1-one] |  |  |  | 101 to 1000 | 0.1 to 100
24 | Cc1nnc(NC(=O)Cc2ccc(-c3n[nH]c(=O)c4ccccc34)cc2)s1 [Example 31, N-(5-methyl-1,3,4-thiadiazol-2-yl)-2-[4-(4-oxo-3,4-dihydrophthalazin-1-yl)phenyl]acetamide] |  |  |  | 1000 to 50000 | 0.1 to 100
